{"source": "paper PMC6915869", "about": "“Immunosuppressive effects of a novel potassium channel toxin Ktx-Sp2 from Scorpiops Pocoki” (Cell & Bioscience, 2019)", "tested_on": "Ca^2+ influx in Jurkat T cells", "assay": "Live cell Ca^2+ imaging (Fura-2) in Jurkat T cells", "type": "cell-based, human", "details": "10 μM CPA, absence of extracellular Ca^2+, Fura-2", "protocol": "Jurkat T cells were loaded with 4 μM Fura-2 AM (Life Technologies) for 60 min at 37 °C. Cells were then washed 3 times and incubated in Hank’s Balanced Salt Solution (HBSS) for 30 min at room temperature before use. Fluorescence at 340 nm and 380 nm excitation wavelengths was recorded on an inverted Nikon Ti-E microscope equipped with 340, 360 and 380 nm excitation filter wheels using NIS-Elements imaging software (Nikon Instruments Inc., Melville, NY, USA). Fura-2 ratios (F340/F380) reflect changes in [Ca^2+]i upon stimulation. Data were obtained from 100 to 250 cells in time-lapse images from each coverslip.\nTo test this hypothesis we performed live cell Ca^2+ imaging using the Ca^2+ indicator dye Fura-2 to determine the effect of Ktx-Sp2 on [Ca^2+]i in the presence of intracellular Ca^2+ store depletion by cyclopiazonic acid (CPA), an inhibitor of the sarcoplasmic reticulum Ca^2+-ATPase. […] When 2 mM Ca^2+ was added to the Ca^2+-free HBSS, we observed a large Ca^2+ influx into the cells. […] At 10 μM, Ktx-Sp2 decreased the F340/F380 ratio from 0.14 ± 0.02 to 0.05 ± 0.01 (n = 278) (Fig. 5b).", "data": [{"smiles": "CC(=O)C1=C(O)[C@@H]2[C@H]3c4c[nH]c5cccc(c45)C[C@H]3C(C)(C)N2C1=O", "note": "[CPA, cyclopiazonic acid, reference compound]", "values": [{"measurement": "rise of [Ca^2+]i induced by CPA", "result": "relative small, transient rise of [Ca^2+]i"}]}]}
